Reference: ChEMBL document CHEMBL4334512, “Rationally Designed, Conformationally Constrained Inverse Agonists of RORγt-Identification of a Potent, Selective Series with Biologic-Like in Vivo Efficacy” (J Med Chem, 2019)

What was measured:
Mus musculus [1] = assay: Suppression of IL-17F production in mouse stimulated at time -24 hrs with IL-2 and at time 0, 7, and 24 hrs with IL-2/IL-23 mixture dosed with compound at 0 and 24 hrs and measured at 30 hrs
[2] = Clearance in rat at 2 mg/kg, iv; format: ADME, organism-based; conditions: in vivo
[3] = molecular target: T1, Nuclear receptor subfamily 1 group I member 2 (Homo sapiens, UniProt O75469); assay: Agonist activity at PXR (unknown origin) by Gal4-Luc reporter gene assay)
T1 sequence (O75469 whole entry): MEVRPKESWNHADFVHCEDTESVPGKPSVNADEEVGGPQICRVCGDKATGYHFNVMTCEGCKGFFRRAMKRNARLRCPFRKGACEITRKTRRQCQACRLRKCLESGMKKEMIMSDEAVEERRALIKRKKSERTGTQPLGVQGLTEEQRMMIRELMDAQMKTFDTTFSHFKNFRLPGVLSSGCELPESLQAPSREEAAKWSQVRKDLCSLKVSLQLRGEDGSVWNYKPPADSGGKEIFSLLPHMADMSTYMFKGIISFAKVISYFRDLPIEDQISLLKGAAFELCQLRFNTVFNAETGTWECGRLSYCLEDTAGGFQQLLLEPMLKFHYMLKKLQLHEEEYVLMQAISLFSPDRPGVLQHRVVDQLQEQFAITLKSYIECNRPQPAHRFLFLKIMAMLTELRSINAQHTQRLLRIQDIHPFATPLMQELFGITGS

[4] = Volume of distribution at steady state in rat at 2 mg/kg, iv; format: ADME, organism-based; conditions: in vivo, read-out: Vdss
[5] = Drug level in Balb/c mouse at 10 mg/kg, po after 24 hrs; format: ADME, organism-based; conditions: in vivo, read-out: Drug uptake
[6] = Oral bioavailability in rat at 4 mg/kg; format: ADME, organism-based; conditions: in vivo
[7] = molecular target: T1, Nuclear receptor subfamily 1 group I member 2; assay: Activity at PXR (unknown origin)
Mus musculus [8] = assay: Suppression of IL-22 RNA expression in skin region of mouse model of IL-23 induced acanthosis model of psoriasis at 3 to 30 mg/kg, po BID for 10 days measured every other day; format: functional
Mus musculus [9] = assay: Suppression of IL-17F RNA expression in skin region of mouse model of IL-23 induced acanthosis model of psoriasis at 30 mg/kg, po BID for 10 days measured every other day relative to control; format: functional; conditions: 240 h
Cytochrome P450 3A4 = Cytochrome P450 3A4 (Homo sapiens, UniProt P08684); assay: Inhibition of recombinant CYP3A4 (unknown origin) using BFC substrate; format: ADME
Chain of Cytochrome P450 3A4 (P08684 whole entry): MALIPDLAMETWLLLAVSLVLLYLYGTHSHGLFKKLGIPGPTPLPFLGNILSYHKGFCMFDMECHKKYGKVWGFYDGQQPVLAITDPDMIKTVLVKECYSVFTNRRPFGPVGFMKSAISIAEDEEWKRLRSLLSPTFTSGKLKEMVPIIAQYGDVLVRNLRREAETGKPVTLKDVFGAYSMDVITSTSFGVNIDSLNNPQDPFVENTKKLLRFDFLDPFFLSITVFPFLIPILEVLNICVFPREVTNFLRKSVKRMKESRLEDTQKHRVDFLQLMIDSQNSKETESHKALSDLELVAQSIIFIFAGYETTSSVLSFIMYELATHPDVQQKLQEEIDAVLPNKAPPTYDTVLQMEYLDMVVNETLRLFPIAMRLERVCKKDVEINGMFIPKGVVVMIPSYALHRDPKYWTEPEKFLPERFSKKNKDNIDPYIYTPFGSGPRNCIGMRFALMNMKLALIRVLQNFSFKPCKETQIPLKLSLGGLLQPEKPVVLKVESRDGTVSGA

[10] = Unbound fraction in human serum; format: ADME, cell-free
Mus musculus [11] = assay: Suppression of IL-17F RNA expression in skin region of mouse model of IL-23 induced acanthosis model of psoriasis at 3 to 30 mg/kg, po BID for 10 days measured every other day; format: functional
[12] = Unbound fraction in mouse serum; format: ADME, cell-free
[13] = Clearance in dog at 1 mg/kg, iv; format: ADME, organism-based, Canis lupus familiaris; conditions: in vivo
[14] = Cmax in Balb/c mouse at 10 mg/kg, po; format: ADME, organism-based; parameters: dose 10 mg/kg, route oral; conditions: in vivo
[15] = molecular target: T2, Oxysterols receptor LXR-alpha (Homo sapiens, UniProt Q13133); assay: Agonist activity at LXRalpha (unknown origin) by Gal4-Luc reporter gene assay
T2 sequence (Q13133 whole entry): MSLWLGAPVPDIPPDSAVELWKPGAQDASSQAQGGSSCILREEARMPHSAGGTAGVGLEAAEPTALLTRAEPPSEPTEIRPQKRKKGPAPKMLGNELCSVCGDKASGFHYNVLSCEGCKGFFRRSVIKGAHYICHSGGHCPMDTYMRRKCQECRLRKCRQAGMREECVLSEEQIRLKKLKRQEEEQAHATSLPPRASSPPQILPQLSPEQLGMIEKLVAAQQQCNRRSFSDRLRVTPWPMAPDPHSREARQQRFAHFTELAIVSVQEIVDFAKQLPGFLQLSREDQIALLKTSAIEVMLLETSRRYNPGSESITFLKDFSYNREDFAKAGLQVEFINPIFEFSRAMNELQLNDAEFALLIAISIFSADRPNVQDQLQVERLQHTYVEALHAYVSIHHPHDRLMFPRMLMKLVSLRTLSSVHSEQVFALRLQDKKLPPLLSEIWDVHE

Cytochrome P450 1A2 = molecular target: T3, Cytochrome P450 1A2 (Homo sapiens, UniProt P05177); assay: Inhibition of recombinant CYP1A2 (unknown origin); format: ADME
T3 sequence (P05177 whole entry): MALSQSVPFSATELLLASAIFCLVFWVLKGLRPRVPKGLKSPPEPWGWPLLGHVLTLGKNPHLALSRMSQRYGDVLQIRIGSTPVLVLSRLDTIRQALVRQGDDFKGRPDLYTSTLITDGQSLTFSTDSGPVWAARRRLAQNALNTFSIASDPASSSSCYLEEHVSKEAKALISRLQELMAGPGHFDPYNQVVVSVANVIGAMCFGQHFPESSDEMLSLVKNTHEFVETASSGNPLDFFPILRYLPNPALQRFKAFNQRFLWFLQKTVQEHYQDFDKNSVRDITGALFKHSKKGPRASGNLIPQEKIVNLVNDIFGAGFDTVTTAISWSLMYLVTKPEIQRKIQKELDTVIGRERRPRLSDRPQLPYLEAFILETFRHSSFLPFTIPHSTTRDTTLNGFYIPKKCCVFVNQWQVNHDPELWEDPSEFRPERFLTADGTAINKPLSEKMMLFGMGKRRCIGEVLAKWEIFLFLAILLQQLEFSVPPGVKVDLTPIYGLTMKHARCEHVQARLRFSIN

[16] = Half life in rat liver microsomes; format: ADME, Microsome

EC50 (Mus musculus [1]): 88 nM | clearance [2]: 3.7 mL/min/kg | EC50 [3]: > 50 µM | Vd [4]: 2.9 L/kg | concentration at 24 h [5]: 1100 nM | bioavailability [6]: 50% | IC50 [7]: > 40 µM | IC50 (Cytochrome P450 3A4): > 20 µM | fraction unbound [10]: 0.011 | fraction unbound [12]: 0.007 | clearance [13]: 0.35 mL/min/kg | Cmax [14]: 2900 nM | EC50 [15]: > 7.5 µM | IC50 (Cytochrome P450 1A2): > 20 µM | half-life [16]: > 120 min
Structure (SMILES): O=C(N1CC[C@@]2(S(=O)(=O)c3ccc(F)cc3)c3ccc(C(F)(C(F)(F)F)C(F)(F)F)cc3CC[C@@H]12)C1(O)CCS(=O)(=O)CC1
Activity (Mus musculus [8]): Dose-dependent effect | ED50 (Mus musculus [8]; 240 h): 3 mg/kg | inhibition in vivo at 30 mg/kg (Mus musculus [9]): 85% | Activity (Mus musculus [11]): Dose-dependent effect | ED50 (Mus musculus [11]; 240 h): 3 mg/kg
